{"source": "paper PMC6842111", "about": "(Neuron, 2019)", "key": {"α3β4": {"test_system": "α3β4", "conditions": "cited from earlier work"}, "[1]": {"experiment": "pKa of the bridging nitrogen", "format": "physicochemical", "conditions": "positively-charged bridging nitrogen of the bicyclic ring"}, "human α3β4 receptor": {"test_system": "human α3β4 receptor", "conditions": "ref Tuan et al., 2015; cited from earlier work"}, "α3β4 receptor [2]": {"molecular_target": "T1, α3β4 receptor (Homo sapiens, UniProt P30926+P32297, DEL362-406/DEL379-429/F412N/I408D/INS413[…]/INS432[…]/L414K/P409L/R410E/R415Y/S416L/S433L/V431D)", "format": "binding", "conditions": "Fab in large excess (1 μM); Fig. S1C-F"}, "α3β4 receptor [3]": {"molecular_target": "T1, α3β4 receptor", "experiment": "Functional response to nicotine in presence of Fab", "format": "cell-based", "conditions": "Fig. S1B"}, "[4]": {"conditions": "ref Eaton et al., 2003, Xiao et al., 1998"}}, "note": "Where two headings read alike, the source gives them in different places.", "data": [{"molecule": "Clc1ccc(C2CC3CCC2N3)cn1", "note": "(centres unmarked) [epibatidine]", "values": [{"measurement": "affinity lower for α3β4 than for α4β2", "setting": "α3β4; [4]", "value": "10-100 fold"}]}, {"molecule": "CC(=O)OCC[N+](C)(C)C", "note": "[acetylcholine]", "values": [{"measurement": "affinity lower for α3β4 than for α4β2", "setting": "α3β4; [4]", "value": "10-100 fold"}]}, {"molecule": "CN1CCC[C@H]1c1cccnc1", "note": "[nicotine]", "values": [{"measurement": "affinity lower for α3β4 than for α4β2", "setting": "α3β4", "value": "10-100 fold"}]}, {"molecule": "CN1C2CCCC1CC(Nc1ccccc1Br)C2", "note": "(centres unmarked) [AT-1001]", "values": [{"measurement": "pKa", "setting": "[1]", "value": 9.35}, {"measurement": "affinity to the human α3β4 receptor", "setting": "human α3β4 receptor", "value": "sub-nanomolar"}, {"measurement": "selectivity for α3β4 over α4β2", "setting": "human α3β4 receptor", "value": "~ 200 fold"}]}, {"molecule": "Fab: Fab fragment of the 4G9 mouse monoclonal antibody (IgG2b, κ) raised against α3β4 (antibody, V domains shown) VH: QVQLQQSGPELVRPGVSVKISCKGSGYTFTDYALYWVRQSHAKSLEWIGVINPYSGNTNYNQKFKGKATMTVDKSSSTAYMELARLTSDDSAIYYCASGYDGYPYTMDYWGPGASVTVSS VL: QIVLTQSPAIMSASPGEKVTMTCSASSSMTYMHWYQQKSGTSPKRWIYDTSQLASGVPARFRGSGSGTSFSLTISSMEAEDAATYYCQQWSSNPLTFGGGTKLELK", "values": [{"measurement": "effect on ligand binding", "setting": "α3β4 receptor [2]", "value": "small positive effect"}, {"measurement": "effect on the functional response to nicotine", "setting": "α3β4 receptor [3]", "value": "little to no effect"}]}]}
